Experimental data reported in patent US5266328A, “Laminin a chain polypeptides from the carboxy terminal globular domain” (Regents of the University of Minnesota, priority 1990, dated 1993).

How the values were obtained:
[1] = Solid-phase binding of 3H-heparin to peptides adsorbed to plastic plates (RLBA)
Description: The binding of ^3 H-heparin to laminin A chain peptides was measured in a direct solid phase binding assay as described below, whereby various amounts of the peptides were adsorbed to plates and ^3 H-heparin was added to each well. More specifically, the binding of ^3 H-heparin (0.3 mCi/mg; Du Pont - New England Nuclear Research Products, Wilmington, Del.) to laminin, synthetic peptides, and bovine serum albumin (BSA) (fatty acid free, fraction V, ICN Immunobiologicals) was quantititated by a solid-phase RLBA in 96-well polystyrene Immulon 1 plates (Dynatech Laboratories, Inc., Alexandria, Va.) as described by Skubitz et al., supra (1988). Specifically, 50 microliters of the various proteins at various concentrations (0.2 μg/well-5.0 μg/well) in PBS containing 0.02% NaN3 was added to each well and dried overnight at 29° C. The next day, 200 μl of 2 mg/ml BSA in PBS was added to each well, followed by a 2 hour incubation at 37° C. After removal of this buffer, 50 μl of ^3 H-heparin (200,000 dpm) was added in RLBA buffer (20 mM Tris, pH 6.8 containing 50 mM NaCl and 2 mg/ml ovalbumin) and the wells were incubated at 37° C. for 2 hours. Unbound ^3 H-heparin was removed by washing three times with wash buffer (RLBA buffer containing 0.1% CHAPS). Tritiated heparin was solubilized by incubation with 200 μl of 0.05N NaOH and 1% SDS for 30 minutes at 60° C. and quantitated in a Beckman LS-3801 scintillation counter.
The above experimental procedure was repeated to determine the percentage of ^3 H-heparin that would adhere to 2 μg/well of each polypeptide after a two-hour incubation in increasing concentrations of salt (NaCl).

[2] = system: human colon carcinoma KM12 C (low metastatic) cell line; assay: Direct cell adhesion to peptide-coated surfaces; type: cell-based; settings: surface coated with 1 μg
Text: (§1) The murine melanoma K-1735-C10 (low metastatic) and K-1735-M4 (high metastatic) cell lines, murine UV-2237-MM fibrosarcoma cell line, human renal carcinoma SN12 C (low metastatic) and SN12 PM-6 (high metastatic) cell lines, and human colon carcinoma KM12 C (low metastatic) and KM12 SM (high metastatic) cell lines were originally provided by Dr. I. J. Fidler (M.D., Anderson Hospital, University of Texas Health Sciences Center, Houston, Tex.). The human fibrosarcoma HT-1080 cell line was obtained from the ATCC. The MM fibrosarcoma cell line was maintained in DME (GIBCO Laboratories, Grand Island, N.Y.) containing 10% FBS, the murine melanomas were maintained in DMEM containing 10% calf serum, the human fibrosarcoma cells were maintained in EMEM containing 10% heat inactivated FBS, and the human renal and colon carcinoma cells were grown in EME containing 10% FBS, vitamins, and 1 mM sodium pyruvate. Cells were passaged for 4 to 5 weeks and then replaced from frozen stocks of early passage cells to minimize phenotypic drift. Cells were maintained at 37° C. in a humidified incubator containing 5% CO2.
(§2) The direct adhesion of cells to protein or peptide coated surfaces was performed as described in Skubitz et al., Exp. Cell Res., 173, 349-360 (1987) and Charonis et al., supra (1988). Briefly, radiolabeled cells were added to 96-well microtiter plates coated with various concentrations of synthetic peptides, laminin, or BSA (0.02 μg/well-50 μg/well from 50 μl solutions) for various lengths of time. After the incubation period, loosely or nonadherent cells were removed by washing the wells three times. Adherent cells were solubilized and quantitated in a scintillation counter. More specifically, cultures of cells which were 60-80% confluent were metabolically labeled for 24 hours with the addition of 3 μCi/ml of ^3 H-td (tritiated thymidine). On the day of the assay, the cells were harvested by trypsinization, the trypsin was inhibited by the addition of serum, and the cells were washed free of this mixture and resuspended in DMEM buffered with HEPES at pH 7.2. The adhesion medium also contained 2 mg/ml BSA. The cells were adjusted to a concentration of 3-4×10^4 /ml, and 100 μl of this cell suspension was added to the wells. The assay mixture was then incubated at 37° C. for 120 minutes. At the end of the incubation, the wells were washed with warm DMEM/Hepes containing 2 mg/ml BSA, and the adherent population was solubilized with 0.5N NaOH contained 1% SDS. The solubilized cells were then quantitated using a liquid scintillation counter.
(§3) Instead of attempting to characterize the cell binding activity of all 14 of the synthetic peptides, a number of peptides from each of the three heparin binding categories of peptides were evaluated. Microtiter wells were adsorbed with the peptides, laminin, or BSA and a variety of tumor cell lines were tested for the ability to adhere to the ligands. The eight different cell lines selected for this study were of murine or human origin and, in most cases, of either high or low metastatic capacity. […] Many of the peptides that were very good at binding heparin and cells were also capable of inhibiting the adhesion of various cells to surfaces coated with laminin (see below).

[3] = system: human renal carcinoma SN12 C (low metastatic) cell line; assay: Direct cell adhesion to peptide-coated surfaces; type: cell-based; settings: surface coated with 1 μg; human renal (SN12C)
Text: as §1, §2, §3

[4] = system: murine melanoma K-1735-C10 (low metastatic) cell line; assay: Direct cell adhesion to peptide-coated surfaces; type: cell-based; settings: surface coated with 1 μg
Text: as §1, §2, §3

[5] = system: murine melanoma K-1735-M4 (high metastatic) cell line; assay: Direct cell adhesion to peptide-coated surfaces; type: cell-based; settings: surface coated with 1 μg
Text: as §1, §2, §3

[6] = system: murine UV-2237-MM fibrosarcoma cell line; assay: Direct cell adhesion to peptide-coated surfaces; type: cell-based; settings: surface coated with 1 μg
Text: as §1, §2, §3

[7] = system: human colon carcinoma KM12 SM (high metastatic) cell line; assay: Direct cell adhesion to peptide-coated surfaces; type: cell-based; settings: surface coated with 1 μg
Text: as §1, §2, §3

[8] = system: human renal carcinoma SN12 PM-6 (high metastatic) cell line; assay: Direct cell adhesion to peptide-coated surfaces; type: cell-based; settings: surface coated with 1 μg; human renal (SN12 PM6)
Text: as §1, §2, §3

[9] = system: murine melanoma (M4) cells; assay: Inhibition of cell adhesion to laminin-coated surfaces; type: cell-based; settings: soluble peptide 10 μg/ml, surface coated with 1.5 μg of laminin
Text: as §1
(§4) Inhibition of cell adhesion with synthetic peptides was performed using assays similar to those described by Skubitz et al., supra (1987). Briefly, radiolabeled cells at 5×10^4 /ml were incubated for 30 minutes with various concentrations of synthetic peptides (1.0 μg/ml-200 μg/ml) in DME/Hepes containing 2 mg/ml BSA. One hundred microliters of the cell suspension was then added to wells precoated with 1.5 μg of laminin, 1.0 μg of type IV collagen, or 1.0 μg of fibronectin. The cells were incubated for 30 minutes at 37° C., then the wells were washed and adherent cells were quantitated as previously described [Skubitz et al., supra (1987)]. Cell viability after a one hour incubation in the presence of the "inhibitors" was assessed by trypan blue dye exclusion.

[10] = system: human renal (SN12 PM6) cells; assay: as above; type: cell-based; settings: soluble peptide 10 μg/ml, surface coated with 1.5 μg of laminin
Text: as §1, §4

[11] = system: murine fibrosarcoma (MM) cells; assay: as above; type: cell-based; settings: soluble peptide 10 μg/ml, surface coated with 1.5 μg of laminin
Text: as §1, §4

[12] = system: human renal (SN12C) cells; assay: as above; type: cell-based; settings: soluble peptide 10 μg/ml, surface coated with 1.5 μg of laminin
Text: as §1, §4

[13] = system: human fibrosarcoma (HT1080) cells; assay: as above; type: cell-based; settings: soluble peptide 20 μg/ml, surface coated with 1.5 μg of laminin
Text: as §1, §4

[14] = system: murine melanoma (C10) cells; assay: as above; type: cell-based; settings: soluble peptide 10 μg/ml, surface coated with 1.5 μg of laminin
Text: as §1, §4

[15] = system: human colon (KM12 C) cells; assay: as above; type: cell-based; settings: soluble peptide 10 μg/ml, surface coated with 1.5 μg of laminin
Text: as §1, §4

[16] = system: eight different cell lines of murine or human origin; assay: Direct cell adhesion, summary over eight tumor cell lines; type: cell-based; settings: summary of Table IV over eight cell lines
Text: (§5) The murine melanoma K-1735-C10 (low metastatic) and K-1735-M4 (high metastatic) cell lines, murine UV-2237-MM fibrosarcoma cell line, human renal carcinoma SN12 C (low metastatic) and SN12 PM-6 (high metastatic) cell lines, and human colon carcinoma KM12 C (low metastatic) and KM12 SM (high metastatic) cell lines were originally provided by Dr. I. J. Fidler (M.D., Anderson Hospital, University of Texas Health Sciences Center, Houston, Tex.). The human fibrosarcoma HT-1080 cell line was obtained from the ATCC. […]
(§6) The direct adhesion of cells to protein or peptide coated surfaces was performed as described in Skubitz et al., Exp. Cell Res., 173, 349-360 (1987) and Charonis et al., supra (1988). […] Adherent cells were solubilized and quantitated in a scintillation counter. […] The solubilized cells were then quantitated using a liquid scintillation counter.
(§7) Instead of attempting to characterize the cell binding activity of all 14 of the synthetic peptides, a number of peptides from each of the three heparin binding categories of peptides were evaluated. […]

[17] = system: HT-1080 human fibrosarcoma cells; assay: Cell spreading assay; type: cell-based; settings: for Surface Area Occuppied by a Cell / Surface Area Occupied by a Cell: wells coated at 100 μg/ml, 2 1/2 hour incubation; for Surface Area Occuppied by a Cell: HT-1080, Table VII; for Surface Area Occupied by a Cell: human fibrosarcoma (HT1080), Table VI
Description: (§8) Spreading of the adherent cells was evaluated by performing adhesion assays similar to those described above. Twenty-four well tissue culture plates (Becton Dickinson and Co., Lincoln Park, N.J.) were coated with 300 μl of laminin, synthetic peptides, or BSA at 100 μg/ml, then blocked with 2 mg/ml BSA in PBS. Three hundred microliters of a cell suspension at 5×10^4 cells/ml was added to each well, and after a 21/2 hour incubation, nonadherent cells were aspirated out of the wells. Adherent cells were fixed with 2% glutaraldehyde in PBS at 23° C. for one hour. The glutaraldehyde was then removed and the cells were stained by two different techniques. For photographic purposes, the cells were stained with Diff-Quik Solution I (American Scientific Products, McGaw Park, Ill.) for 10 minutes at 23° C. Solution I was removed, then Diff-Quik Solution II was added and the cells were stained for another 10 minutes at 23° C. Wells were washed with PBS, then representative cells were photographed with a Nikon DIAPHOT inverted phase microscope using Panatomic X Film ASA32 (Eastman Kodak, Rochester, N.Y.). Adherent cells to be quantitated for spreading were stained overnight at 23° C. with 500 μl of a solution containing 0.12% (w/v) Coomassie Brilliant Blue R (Sigma Chemical Co.), 5% (v/v) acetic acid, and 50% (v/v) ethanol. Wells were washed three times with 500 μl of PBS and cell spreading was then quantitated by measuring the average surface area occupied by a cell using an Opti-Max Image Analyzer. Thirty cells were measured per well; each experiment was done in quadruplicate and repeated three times. In all cases, the cells spread on the peptides to occupy an area about 60% of that seen on laminin-coated surfaces.

[18] = system: human renal (SN12 PM6) cells; assay: Cell spreading assay; type: cell-based; settings: wells coated at 100 μg/ml, 2 1/2 hour incubation
Description: as §8

[19] = system: murine fibrosarcoma (MM) cells; assay: Cell spreading assay; type: cell-based; settings: wells coated at 100 μg/ml, 2 1/2 hour incubation
Description: as §8

[20] = system: human renal (SN12C) cells; assay: Cell spreading assay; type: cell-based; settings: wells coated at 100 μg/ml, 2 1/2 hour incubation
Description: as §8

[21] = system: human fibrosarcoma HT-1080 cell line; assay: Direct cell adhesion to peptide-coated surfaces; type: cell-based; settings: surface coated with 1 μg; human fibrosarcoma (HT1080)
Text: as §5, §6, §7
Radiolabeled HT-1080 human fibrosarcoma cells were incubated in the wells for 30 minutes and the adhesion of cells was quantitated.

Row | Substance | Percentage of Cells Adhered to Surface [2] [%] | Percentage of Cells Adhered to Surface [3] [%] | Percentage of Cells Adhered to Surface [4] [%] | Percentage of Cells Adhered to Surface [5] [%] | Percentage of Cells Adhered to Surface [6] [%] | Percentage of Cells Adhered to Surface [8] [%] | Surface Area Occuppied by a Cell [17] | Surface Area Occupied by a Cell [17] [μm^2] | Surface Area Occupied by a Cell [18] [μm^2] | Surface Area Occupied by a Cell [19] [μm^2] | Surface Area Occupied by a Cell [20] [μm^2] | Percentage of Cells Adhered to Surface [21] [%] | also measured
1 | KQNCLSSRASFRGCVRNLRLSR [Peptide R30, laminin A chain residues 3011-3032] | 48 | 84 | 82 | 25 | 56 | 67 | 392 +/- 27 um2 | 392 ± 27 | 311 ± 19 | 291 ± 21 | 292 ± 22 | 92 | Heparin Binding (bound ^3 H-heparin as percent of input) ([1]; One microgram peptide adsorbed, 200,000 dpm ^3 H-heparin, 20 mM Tris pH 6.8, 50 mM NaCl, 2 mg/ml ovalbumin): **** (>10% [****]); Bound ^3 H-heparin as percent of input, 0.05M NaCl ([1]; Two micrograms peptide adsorbed, 0.02M Tris pH 6.8, 0.05M NaCl, 2 hr 37 C): **** (>10% (****)); Bound ^3 H-heparin as percent of input, 0.15M NaCl ([1]; Two micrograms peptide adsorbed, 0.02M Tris pH 6.8, 0.15M NaCl, 2 hr 37 C): **** (>10% (****)); Bound ^3 H-heparin as percent of input, 0.5M NaCl ([1]; Two micrograms peptide adsorbed, 0.02M Tris pH 6.8, 0.5M NaCl, 2 hr 37 C): *** (6.0-10.0% (***)); Bound ^3 H-heparin as percent of input, 1.0M NaCl ([1]; Two micrograms peptide adsorbed, 0.02M Tris pH 6.8, 1.0M NaCl, 2 hr 37 C): * (2.0-3.9% (*)); Heparin binding activity group ([1]; grouping of the Table II results in words): very good heparin binding; Percentage of Cells Adhered to Surface [7]: 69%; Percentage Inhibition of Laminin-Mediated Cell Adhesion [9]: 38%; Percentage Inhibition of Laminin-Mediated Cell Adhesion [10]: 44%; Percentage Inhibition of Laminin-Mediated Cell Adhesion [11]: 25%; Percentage Inhibition of Laminin-Mediated Cell Adhesion [12]: 0%; Percentage Inhibition of Laminin-Mediated Cell Adhesion [13]: 51%; Percentage Inhibition of Laminin-Mediated Cell Adhesion [14]: 22%; Percentage Inhibition of Laminin-Mediated Cell Adhesion [15]: 59%; promotion of cell adhesion, in words [16]: capable of promoting the adhesion of all eight cell lines; HT-1080 cell spreading, in words ([17]; ranking of Table VII): promoted the most cell spreading
2 | Laminin: extracellular matrix glycoprotein isolated from the EHS murine tumor; positive control | 11 | 28 | 58 | 13 | 53 | 36 | 610 +/- 62 um2 | 610 ± 62 | 550 ± 29 | 443 ± 32 | 520 ± 14 | 41 | –
